What was measured:
Type in all cases: in vivo, mouse
[1] = test system: pregnant C3H/HeJ mice, embryos; assay: Embryo phenotype assessments
Description: (§1) For all animal experiments, C3H/HeJ (10–12 weeks of age, male and female) were purchased from the Jackson Laboratory (Bar Harbor, ME), and were housed in microisolator cages containing autoclaved corncob bedding, and maintained on a 12‐h light‐dark cycle in climate‐controlled laboratory animal facilities approved by the University of Nebraska Medical Center Institutional Animal Care and Use Committee (IACUC). Mice were given free access to irradiated rodent feed (TD. 180,911, Envigo Teklad diet, Madison, WI) and sterile water. Animals were acclimated to the environment for approximately 7–14 days to determine that they were healthy based on observed behavior and weight gain. A female was placed with a male overnight for the purpose of timed matings. The following morning males were removed from the cages and positive vaginal plugs were identified. […] The time of conception was considered to be midnight on the evening of the mating. Treatment of plugged females was started at the morning of the day of plug detection (gestation day (GD) 0.5). […] Pregnant dams were randomly assigned to DTG or vehicle (control) group. Weight gain in dams was measured on GD 0.5, 5.5, 10.5, and 15.5. At GD 16.5, dams were humanely euthanized, and embryos and placenta were harvested. Embryos were evaluated for NTDs. At the time of harvest, the total number of implants (litter size, resorption rates, or viable embryos) was recorded for each pregnancy. Further, whole brain tissues from normal viable embryos were isolated and processed for examination of MMP expression and activity.

[2] = Embryo phenotype assessments; conditions: female, C3H/HeJ, mouse, in vivo, oral; GD 16.5, 50 mg/kg/day; read-out: Total viable embryos (%)
Description: as §1

[3] = test system: MMP; assay: Broad-spectrum MMP activity in embryonic brain (fluorometric substrate); conditions: GD 16.5, dams 50 mg/kg/day oral GD 0.5-15.5, compared to controls
Experimental: Broad-spectrum MMP activity was measured in whole brain tissue homogenates of normal, viable embryos (GD 16.5) using a quenched fluorogenic substrate, OMNIMMP® RED (BML-P277-0100, Enzo Life Sciences). Whole brain tissues were isolated from randomly selected embryos from different dams for both DTG and control groups. Tissues were homogenized in NP-40 lysis buffer using a Qiagen TissueLyzer II (Valencia, CA). Tissue lysates were centrifuged at 16,000 g at 4 °C for 20 min and supernatants were collected. Total protein levels in each sample were quantitated using Pierce™ BCA Protein Assay Kit (Thermo Fisher Scientific, Waltham, MA). The assays were performed in a 96-well, black, flat, microplate format. Fifty micrograms of protein for each sample was incubated with buffer (BML-KI175-0020, Enzo Life Sciences) at 37 °C for 60 min. Each sample was platted in duplicates. Later, reaction was started by adding fluorogenic substrate. Plate was read at similar instructions mentioned above for fluorometric substrate assay. Ilomastat (GM6001; broad-spectrum MMP inhibitor, ab120845, abcam) was added to randomly selected protein samples in additional wells at 20 µM concentration as an assay control.

[4] = test system: C3H/HeJ mice pups, hippocampus; assay: Magnetic resonance spectroscopy (1H MRS) of pups
Experimental: After DTI measurements, the same animals were scanned by ^1H MRS to measure metabolite concentrations. N-Acetylaspartate (NAA), total choline (tCho), and total creatine (tCre) were measured in HI region. Animals from both groups, DTG and control, were scanned. SemiLASER localization with timing parameters (TE/TR = 40/4000 ms, 576 averages, 2048 points) was used to obtain MRS data. Voxel was located on HI. All first- and second-order shim terms were automatically adjusted using MAPSHIM® (Bruker, Billerica, MA). A final shim performed manually, if necessary, to achieve a water line width of 10–15 Hz. The water signal was suppressed by variable power radiofrequency (RF) pulses with optimized relaxation delays (VAPOR). MRS data were quantified using LCModel (LCMODEL Inc., CA). Results were expressed as a percentage of the sum of all 3 metabolites as a semi-quantitative method for reporting metabolite concentrations in institutional units (I.U.). Glycerophosphocholine and phosphocholine were added and reported as total choline-containing compounds.

[5] = PK and BD of DTG during pregnancy; conditions: for Kp: C3H/HeJ, mouse, oral, 50 mg/kg
Description: Drug administration was started at the day of plug detection (GD 0.5) and continued up to the day of birth of pups. Blood samples were collected from dams into heparinized tubes by cheek puncture (submandibular vein) using a 5-mm lancet (MEDIpoint, Inc., Mineola, NY) at GD 8.5 and 16.5 and postnatal days (PND) 4, 12, and 21 for plasma collection. […] Each sample (plasma or tissue) evaluated for DTG levels was randomly selected from distinct litters.
DTG was purchased from BOC Sciences (Shirley, NY). […]
PK and BD of DTG during pregnancy
DTG levels were quantitated in plasma, and tissue homogenates by ultraperformance liquid chromatography tandem mass spectrometry (UPLC-MS/MS). […]
ml of acetonitrile (ACN) and 10 µl of internal standard (IS) solution were added to 2 5 µl of plasma.
DTG-d3 at a final concentration of 50 ng/m l ser ved as the IS. Samples were vortexed and centrifuged at 17,000×g for 10 min at 4 °C. Supernatants were dried using a speed- vac and reconstituted in 100 µl 50% (v/v) ACN in water. The samples were vortexed and centrifuged at […]
analysis, 50– 200 mg of tissue (placenta, fetal brain) was homogenized in 9 volumes of 90% (v/v) methanol (MeOH) in water using a Qiagen TissueLyzer II (Valencia, CA). Subsequently, 280 µl o f MeOH, 10 µl of 80% (v/v) MeOH in water, and 10 µl IS were added to 100 µl of tissue homogenate.
Samples were then vortexed, left for 5 min on ice and centrifuged at 17,000 × g and 4 °C for 15 min. Twenty µl of supernatant was mixed with 80 µl of 50% (v/v) ACN in water. The samples were centrifuged at 17,000 × g at 4 °C f or 10 m in and the supernatant was used for analysis. Standard

[6] = GD 16.5, 50 mg/kg/day, of 103 viable
[7] = GD 16.5, 50 mg/kg/day, of 130 implants

C[C@@H]1CCO[C@H]2Cn3cc(C(=O)NCc4ccc(F)cc4F)c(=O)c(O)c3C(=O)N12 [DTG, Dolutegravir]
maternal body weight gain during gestation ([1]; 50 mg/kg/day oral GD 0.5-15.5, DTG vs control): No differences
Abnormal/litter ([1]; GD 16.5, 50 mg/kg/day): 0.05
Implants/litter (mean litter size) ([1]; GD 16.5, 50 mg/kg/day): 7.6
Resorptions/litter ([1]; GD 16.5, 50 mg/kg/day): 1.5
Total resorptions (%) ([1]; GD 16.5, 50 mg/kg/day): 20.76%
Viable embryos/litter ([1]; GD 16.5, 50 mg/kg/day): 6.05
Total implants ([1]; GD 16.5, 50 mg/kg/day, 17 litters): 130
Viable embryos abnormal, exencephaly (number) [1, 6]: 1
Viable embryos normal (number) [1, 6]: 102
Total resorptions (number) [1, 7]: 27
Total viable embryos (number) [1, 7]: 103
viability [2]: 79.2%
Broad-spectrum MMP activity in embryonic brain [3]: significantly inhibited
NAA levels in hippocampus vs control ([4]; PND 28-34, all pups): significantly reduced
tCho levels in hippocampus vs control ([4]; PND 28-34, all pups): significant increase
tCre (internal reference) in hippocampus vs control ([4]; PND 28-34, all pups): No differences
NAA in hippocampus vs control ([4]; female pups): significantly reduced
plasma drug levels in pregnant dams relative to maximal DTG concentration (Cmax) in human plasma at therapeutic doses ([5]; 50 mg/kg daily): 10 ×
Kp ([5]; embryo brain / dam plasma, GD 16.5): 0.024
Kp ([5]; pup brain / dam plasma, PND 4): 0.038
DTG concentration in plasma of dams ([5]; GD 8.5, 50 mg/kg daily oral gavage from GD 0.5): 38,628.63 ± 4855.53 ng/mL
ratio of embryo brain DTG levels to placenta DTG levels ([5]; GD 16.5): 0.18
DTG concentration in placental tissue ([5]; GD 16.5, 50 mg/kg daily oral): 3528.04 ± 316.56 ng/g
DTG concentration in plasma of dams ([5]; GD 16.5, 50 mg/kg daily oral gavage from GD 0.5): 27,296.3 ± 2701.15 ng/mL
DTG concentration in embryonic brain tissue ([5]; GD 16.5, 50 mg/kg daily oral to dam): 663.6 ± 75.13 ng/g
DTG concentration in brain tissue of pups ([5]; PND 4): 48.1 ± 2.35 ng/g
DTG concentration in plasma of dams ([5]; PND 4, dosing stopped at birth of pups): 1244.2 ± 623.20 ng/mL
DTG concentration in plasma of dams ([5]; PND 12, dosing stopped at birth of pups): 48.95 ± 7.39 ng/mL
DTG concentration in plasma of dams ([5]; PND 21, dosing stopped at birth of pups): 21.97 ± 2.42 ng/mL
DTG level in pup's brain predicted from dam plasma/embryo brain ratio (detection limit) ([5]; PND 28, after cessation of dosing at birth): < 0.1 ng/g
Kp ([5]; female, placenta / dam plasma, GD 16.5): 0.12

Source: PMC8599359 (Molecular Neurobiology, 2021)
